Test results as given in US8207155B2, “Sulfonyl-azetidin-3-yl-methylamine amide analogs as GlyTl inhibitors, methods for making same, and use of same in treating psychiatric disorders” (Vanderbilt University, priority 2009, dated 2012).
Read-outs that look alike come from different tables or passages of the source.

Target: T1, GlyT1 (Homo sapiens, UniProt P48067)
T1 construct: Human placental choriocarcinoma cells endogenously expressing GlyT1; endogenous in cells; host or cells: JAR human placental choriocarcinoma cells
T1 sequence (P48067 1-706): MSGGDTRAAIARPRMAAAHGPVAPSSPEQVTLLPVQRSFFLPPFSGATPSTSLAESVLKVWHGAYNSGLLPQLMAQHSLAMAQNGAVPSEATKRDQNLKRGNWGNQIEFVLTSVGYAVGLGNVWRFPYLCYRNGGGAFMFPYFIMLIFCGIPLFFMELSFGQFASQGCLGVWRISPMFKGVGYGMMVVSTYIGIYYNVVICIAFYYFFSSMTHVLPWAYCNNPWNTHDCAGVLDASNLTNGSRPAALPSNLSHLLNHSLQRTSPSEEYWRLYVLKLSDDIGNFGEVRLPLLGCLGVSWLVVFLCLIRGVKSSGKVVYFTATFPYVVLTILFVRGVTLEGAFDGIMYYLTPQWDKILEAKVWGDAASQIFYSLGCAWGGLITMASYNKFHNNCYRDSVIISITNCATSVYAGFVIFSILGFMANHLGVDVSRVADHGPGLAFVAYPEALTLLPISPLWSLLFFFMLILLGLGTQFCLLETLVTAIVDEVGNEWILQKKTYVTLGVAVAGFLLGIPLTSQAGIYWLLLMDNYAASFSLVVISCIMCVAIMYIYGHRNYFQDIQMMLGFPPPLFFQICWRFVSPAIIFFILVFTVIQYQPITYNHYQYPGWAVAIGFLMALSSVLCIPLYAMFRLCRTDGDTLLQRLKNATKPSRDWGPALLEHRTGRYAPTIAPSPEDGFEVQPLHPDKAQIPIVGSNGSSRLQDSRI
Experiment: GlyT1 [14C]-glycine uptake inhibition in human placental choriocarcinoma (JAR) cells
Assay type: cell-based
Settings: inhibition of specific [14C]-glycine uptake, cells endogenously expressing GlyT1, read-out: Potency (IC50)
Method: Human placental choriocarcinoma cells endogenously expressing GlyT1 can be cultured using standard conditions. Cells can then be grown at 37° C. in a humidified atmosphere 40-48 hours before the assay. Culture medium can be removed from the culture plate, and cells can be incubated with an amount of TB1A buffer with or without the compounds of the present invention for a sufficient period of time. Then an amount of [^14C]-glycine diluted with TB1A can be added to each well. After incubation the microplates can be sealed and counted. Non-specific uptake of [^14C]-glycine can be determined in the presence of unlabeled glycine. To determine potencies, a range of concentrations of the compounds of the present invention can be added to the cells, followed by the fixed concentration of [^14C]-glycine. The concentration of the present compound that inhibited half of the specific uptake of [^14C]glycine (IC50 value) can be determined from the assay data by non-linear curve fitting.

IC50 (values in nM)	SMILES	other results
394 nM	CC(C)C(NC(=O)c1ccc(Cl)cc1Cl)C1CN(S(=O)(=O)c2cn(C)cn2)C1 (centres unmarked) [Compound 10a]	
185 nM	CCCC(NC(=O)c1ccc(Cl)cc1Cl)C1CN(S(=O)(=O)c2cn(C)cn2)C1 (centres unmarked) [Compound 10b]	
40 nM	Cn1cnc(S(=O)(=O)N2CC(C(NC(=O)c3ccc(Cl)cc3Cl)c3cccs3)C2)c1 (centres unmarked) [Compound 10c]	
253 nM	Cn1cnc(S(=O)(=O)N2CC(C(NC(=O)c3ccc(Cl)cc3Cl)C3CC3)C2)c1 (centres unmarked) [Compound 10d]	
581 nM	CC(C)CC(NC(=O)c1ccc(Cl)cc1Cl)C1CN(S(=O)(=O)c2cn(C)cn2)C1 (centres unmarked) [Compound 10f]	
356 nM	Cn1cnc(S(=O)(=O)N2CC(C(NC(=O)c3ccccc3Cl)c3ccccn3)C2)c1 (centres unmarked) [Compound 10g]	
256 nM	Cn1cnc(S(=O)(=O)N2CC(C(NC(=O)c3ccccc3C(F)(F)F)c3ccccn3)C2)c1 (centres unmarked) [Compound 10h]	
940 nM	Cn1cnc(S(=O)(=O)N2CC(C(NC(=O)c3ccc(Cl)cc3)c3ccccn3)C2)c1 (centres unmarked) [Compound 10i]	

Second part, the compound before the results:

SMILES	IC50 (values in nM)	other results
CCCS(=O)(=O)N1CC(C(NC(=O)c2ccc(Cl)cc2Cl)c2ccccc2)C1 (single isomer, unassigned) [Compound 3a-1, 2,4-dichloro-N-(phenyl(1-(propylsulfonyl)azetidin-3-yl)methyl)benzamide]		IC50 (values given in μM): > 10000 nM
CCCS(=O)(=O)N1CC(C(NC(=O)c2ccc(Cl)cc2Cl)c2ccccc2)C1 (single isomer, unassigned) [Compound 3a-2, 2,4-dichloro-N-(phenyl(1-(propylsulfonyl)azetidin-3-yl)methyl)benzamide]	627 nM	
Cn1cnc(S(=O)(=O)N2CC(C(NC(=O)c3ccc(Cl)cc3Cl)c3ccccc3)C2)c1 (single isomer, unassigned) [Compound 3b-1, 2,4-dichloro-N-((1(1-methyl-1H-imidazol-4-ylsulfonyl)azetidin-3-yl)(phenyl)methyl)benzamide]		IC50 (value printed in pM): 0.029 nM
Cn1cnc(S(=O)(=O)N2CC(C(NC(=O)c3ccc(Cl)cc3Cl)c3ccccc3)C2)c1 (single isomer, unassigned) [Compound 3b-2, 2,4-dichloro-N-((1(1-methyl-1H-imidazol-4-ylsulfonyl)azetidin-3-yl)(phenyl)methyl)benzamide]	627 nM	
CCCS(=O)(=O)N1CC(C(NC(=O)c2ccc(Cl)cc2Cl)c2ccccc2)C1 (centres unmarked) [Compound 3a, 2,4-dichloro-N-(phenyl(1-(propylsulfonyl)azetidin-3-yl)methyl)benzamide]	730 nM	
Cn1cnc(S(=O)(=O)N2CC(C(NC(=O)c3ccc(Cl)cc3Cl)c3ccccc3)C2)c1 (centres unmarked) [Compound 3b, 2,4-dichloro-N-((1(1-methyl-1H-imidazol-4-ylsulfonyl)azetidin-3-yl)(phenyl)methyl)benzamide]	39 nM	
Cn1cnc(S(=O)(=O)N2CC(C(NC(=O)c3ccccc3Cl)c3ccccc3)C2)c1 (centres unmarked) [Compound 9a]	133 nM	
Cn1cnc(S(=O)(=O)N2CC(C(NC(=O)c3ccc(Cl)cc3)c3ccccc3)C2)c1 (centres unmarked) [Compound 9b]	334 nM	
Cn1cnc(S(=O)(=O)N2CC(C(NC(=O)c3ccc(Cl)c(Cl)c3)c3ccccc3)C2)c1 (centres unmarked) [Compound 9c]	446 nM	
Cn1cnc(S(=O)(=O)N2CC(C(NC(=O)c3ccc(F)cc3)c3ccccc3)C2)c1 (centres unmarked) [Compound 9d]		IC50 (values given in μM): > 10000 nM
Cn1cnc(S(=O)(=O)N2CC(C(NC(=O)c3ccccc3F)c3ccccc3)C2)c1 (centres unmarked) [Compound 9e]		IC50 (values given in μM): 1100 nM
Cn1cnc(S(=O)(=O)N2CC(C(NC(=O)c3c(F)cccc3F)c3ccccc3)C2)c1 (centres unmarked) [Compound 9f]	439 nM	
Cn1cnc(S(=O)(=O)N2CC(C(NC(=O)c3ccccc3C(F)(F)F)c3ccccc3)C2)c1 (centres unmarked) [Compound 9g]	101 nM	
Cn1cnc(S(=O)(=O)N2CC(C(NC(=O)c3ccc(F)cc3F)c3ccccc3)C2)c1 (centres unmarked) [Compound 9h]	454 nM	
Cn1cnc(S(=O)(=O)N2CC(C(NC(=O)c3ccc(F)c(F)c3)c3ccccc3)C2)c1 (centres unmarked) [Compound 9i]		IC50 (values given in μM): 1000 nM
Cn1cnc(S(=O)(=O)N2CC(C(NC(=O)c3cc(Cl)cc(Cl)c3)c3ccccc3)C2)c1 (centres unmarked) [Compound 9j]		IC50 (values given in μM): 1500 nM
Cn1cnc(S(=O)(=O)N2CC(C(NC(=O)c3cccnc3Cl)c3ccccc3)C2)c1 (centres unmarked) [Compound 9k]	718 nM	
Cn1cnc(S(=O)(=O)N2CC(C(NC(=O)c3ccc(Cl)cc3Cl)C3CCCC3)C2)c1 (centres unmarked) [Compound 10e]		IC50 (values given in μM): 1600 nM
